This passage reports EC50 and CC50 results from patent publication US10954252B1, “Inhibitors of human immunodeficiency virus replication” (ViiV HEALTHCARE UK (NO.5) LIMITED, priority 2017, dated 2021).

As a reminder, the EC50 is the concentration needed to bring the measured effect to its halfway point. One may read the CC50 as the concentration giving 50% cytotoxicity. Low readings indicate greater toxicity to the cells, high ones lower toxicity to the cells.

The test system of data set [1] is recombinant NL4-3 virus (nef section replaced with Renilla luciferase gene) in MT-2 cells. The data set is described as follows: HIV cell culture assay (antiviral activity, luciferase readout). In kind it is cell-based. To be noted: Renilla, NL43, Table 1a; MT-2 cells infected for 4-5 days with recombinant NL4-3 luciferase virus. A digest of the protocol: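 NL4-3 reporter virus carrying Renilla luciferase in place of part of nef, produced in 293T cells, was used to infect MT-2 cells for 4-5 days with serial compound dilutions. Luciferase activity was read with a live-cell substrate; EC50 derived from the median effect equation.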

Data set [2] can be described thus: Compound cytotoxicity, XTT-based colorimetric assay. In kind it is cell-based. Particulars: human, uninfected MT2 cells, Table 1a, day 4, XTT. An outline of the steps: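 CC50 from uninfected MT2 cells run under the antiviral-assay protocol without virus. Viability read on day 4 by XTT colorimetric assay.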
On the technique in general: Tetrazolium assays rely on reduction of a dye to a coloured formazan, in cell work by metabolically active cells.

As to `O=C(Cn1nc(C(F)F)c2c1C(F)(F)[C@@H]1C[C@H]21)N[C@H](Cc1cc(F)cc(F)c1)c1nc2cc[nH]c2cc1-c1ccc(S(=O)(=O)N2CCOCC2)cc1` [Example 66, 2-((3bS,4aR)-3-(difluoromethyl)-5,5-difluoro-3b,4,4a,5-tetrahydro-1H-cyclopropa[3,4]cyclopenta[1,2-c]pyrazol-1-yl)-N—((R)-2-(3,5-difluorophenyl)-1-(6-(4-(morpholinosulfonyl)phenyl)-1H-pyrrolo[3,2-b]pyridin-5-yl)ethyl)acetamide], the EC50 in data set [1] turned out to be 1540 nM. Besides, in data set [2], half-maximal cytotoxicity (CC50 at 4 days) was put at 10000 nM.
Take `Cn1nc(NS(C)(=O)=O)c2c(Cl)ccc(-n3c(C(Cc4cc(F)cc(F)c4)NC(=O)Cn4nc(C(F)F)c5c4C(F)(F)[C@@H]4C[C@H]54)nc4c(F)cc(F)cc4c3=O)c21` (some centres unmarked) [Example 73]: in data set [1], the EC50 was 1.53 nM. The cytotoxic concentration (CC50) at 4 days in data set [2] is over 1000 nM.
With `COc1ccc2c(=O)n(-c3ccc(Cl)c4c(NS(C)(=O)=O)nn(C)c34)c(C(Cc3cc(F)cc(F)c3)NC(=O)Cn3nc(C(F)F)c4c3C(F)(F)[C@@H]3C[C@H]43)nc2c1F` (some centres unmarked) [Example 75], in data set [1], the EC50 turned out to be 109 nM. This compound displayed a CC50 at 4 days in data set [2] of over 1000 nM.
Regarding `CC(C)c1ccc(-c2cc3[nH]ccc3nc2[C@H](Cc2cc(F)cc(F)c2)NC(=O)Cn2nc(C(F)F)c3c2C(F)(F)[C@@H]2C[C@H]32)cn1` [Example 81, 2-((3bS,4aR)-3-(difluoromethyl)-5,5-difluoro-3b,4,4a,5-tetrahydro-1H-cyclopropa[3,4]cyclopenta[1,2-c]pyrazol-1-yl)-N—((S)-2-(3,5-difluorophenyl)-1-(6-(6-isopropylpyridin-3-yl)-1H-pyrrolo[3,2-b]pyridin-5-yl)ethyl)acetamide], the concentration giving a half-maximal response (EC50) in data set [1] worked out at 13.6 nM. The CC50 at 4 days in data set [2] was found to be 10000 nM.
In the case of `CC(C)c1ccc(-c2cc3[nH]ccc3nc2[C@@H](Cc2cc(F)cc(F)c2)NC(=O)Cn2nc(C(F)F)c3c2C(F)(F)[C@@H]2C[C@H]32)cn1` [Example 85, 2-((3bS,4aR)-3-(difluoromethyl)-5,5-difluoro-3b,4,4a,5-tetrahydro-1H-cyclopropa[3,4]cyclopenta[1,2-c]pyrazol-1-yl)-N—((R)-2-(3,5-difluorophenyl)-1-(6-(6-isopropylpyridin-3-yl)-1H-pyrrolo[3,2-b]pyridin-5-yl)ethyl)acetamide], the EC50 in data set [1] was found to be 299 nM. Further, the half-maximal cytotoxic concentration (CC50) at 4 days in data set [2] was over 3160 nM.
The matching figures for `Cn1nc(NS(C)(=O)=O)c2c(Cl)ccc(-c3cc4[nH]cc(Cl)c4nc3C(Cc3cc(F)cc(F)c3)NC(=O)Cn3nc(C(F)F)c4c3C(F)(F)[C@@H]3C[C@H]43)c21` (some centres unmarked) [Example 88]: 0.61 nM and over 10000 nM.
As for `CS(=O)(=O)Nc1n[nH]c2c(-c3cc4[nH]ccc4nc3[C@H](Cc3cc(F)cc(F)c3)NC(=O)Cn3nc(C(F)F)c4c3C(F)(F)[C@@H]3C[C@H]43)ccc(Cl)c12` [Example 90, N—((S)-1-(6-(4-chloro-3-(methylsulfonamido)-1H-indazol-7-yl)-1H-pyrrolo[3,2-b]pyridin-5-yl)-2-(3,5-difluorophenyl)ethyl)-2-((3bS,4aR)-3-(difluoromethyl)-5,5-difluoro-3b,4,4a,5-tetrahydro-1H-cyclopropa[3,4]cyclopenta[1,2-c]pyrazol-1-yl)acetamide], in data set [1], the EC50 is 1.48 nM. Further, in data set [2], the half-maximal cytotoxic concentration (CC50) at 4 days is over 10000 nM.
For `CS(=O)(=O)Nc1nn(CC(F)F)c2c(-c3nc4ccccc4nc3[C@H](Cc3cc(F)cc(F)c3)NC(=O)Cn3nc(C(F)F)c4c3C(F)(F)[C@@H]3C[C@H]43)ccc(Cl)c12` [Example 96, N—((S)-1-(3-(4-chloro-1-(2,2-difluoroethyl)-3-(methylsulfonamido)-1H-indazol-7-yl)quinoxalin-2-yl)-2-(3,5-difluorophenyl)ethyl)-2-((3bS,4aR)-3-(difluoromethyl)-5,5-difluoro-3b,4,4a,5-tetrahydro-1H-cyclopropa[3,4]cyclopenta[1,2-c]pyrazol-1-yl)acetamide], the EC50 in data set [1] was 0.26 nM. The same compound registered a CC50 at 4 days in data set [2] of over 1000 nM.
As to `COc1c(F)cc2c(=O)n(-c3ccc(Cl)c4c(NS(C)(=O)=O)nn(C)c34)c(C(Cc3cc(F)cc(F)c3)NC(=O)Cn3nc(C(F)F)c4c3C(F)(F)[C@@H]3C[C@H]43)nc2c1F` (some centres unmarked) [Example 113], in data set [1], the 50% effective concentration (EC50) came to 8.43 nM. This compound also had a half-maximal cytotoxic concentration (CC50) at 4 days in data set [2] of over 1000 nM.
`O=C(Cn1nc(C(F)F)c2c1C(F)(F)[C@@H]1C[C@H]21)NC(Cc1cc(F)cc(F)c1)c1nc2ncccc2c(=O)n1-c1ccc(Cl)cc1` (stereo partly drawn) [Example 123, N-(1-(3-(4-chlorophenyl)-4-oxo-3,4-dihydropyrido[2,3-d]pyrimidin-2-yl)-2-(3,5-difluorophenyl)ethyl)-2-((3bS,4aR)-3-(difluoromethyl)-5,5-difluoro-3b,4,4a,5-tetrahydro-1H-cyclopropa[3,4]cyclopenta[1,2-c]pyrazol-1-yl)acetamide]: the EC50 in data set [1] was found to be 408 nM. In data set [2], this compound displayed a 50% cytotoxic concentration (CC50) at 4 days of over 1000 nM.
As for `O=C(Cn1nc(C(F)F)c2c1C(F)(F)[C@@H]1C[C@H]21)N[C@@H](Cc1cc(F)cc(F)c1)c1nc2ccccc2c(=O)n1-c1ccc(Cl)cc1` [Example 124, N—((S)-1-(3-(4-chlorophenyl)-4-oxo-3,4-dihydroquinazolin-2-yl)-2-(3,5-difluorophenyl)ethyl)-2-((3bS,4aR)-3-(difluoromethyl)-5,5-difluoro-3b,4,4a,5-tetrahydro-1H-cyclopropa[3,4]cyclopenta[1,2-c]pyrazol-1-yl)acetamide], the 50% effective concentration (EC50) in data set [1] was 208 nM. This compound also returned a half-maximal cytotoxic concentration (CC50) at 4 days in data set [2] of over 1000 nM.
On to `Cn1nc(NS(C)(=O)=O)c2c(Cl)ccc(-c3nc4ccccc4nc3[C@H](Cc3cc(F)cc(F)c3)NC(=O)Cn3nc(C(F)F)c4c3C(F)(F)[C@@H]3C[C@H]43)c21` [Example 154, N—((S)-1-(3-(4-chloro-1-methyl-3-(methylsulfonamido)-1H-indazol-7-yl)quinoxalin-2-yl)-2-(3,5-difluorophenyl)ethyl)-2-((3bS,4aR)-3-(difluoromethyl)-5,5-difluoro-3b,4,4a,5-tetrahydro-1H-cyclopropa[3,4]cyclopenta[1,2-c]pyrazol-1-yl)acetamide], for which the EC50 in data set [1] came out at 0.43 nM. Also, in data set [2], the CC50 at 4 days is over 10000 nM.
As for `Cn1nc(NS(C)(=O)=O)c2c(Cl)ccc(-c3nc4ccccc4nc3[C@@H](Cc3cc(F)cc(F)c3)NC(=O)Cn3nc(C(F)F)c4c3C(F)(F)[C@@H]3C[C@H]43)c21` [Example 155, N—((R)-1-(3-(4-chloro-1-methyl-3-(methylsulfonamido)-1H-indazol-7-yl)quinoxalin-2-yl)-2-(3,5-difluorophenyl)ethyl)-2-((3bS,4aR)-3-(difluoromethyl)-5,5-difluoro-3b,4,4a,5-tetrahydro-1H-cyclopropa[3,4]cyclopenta[1,2-c]pyrazol-1-yl)acetamide], in data set [1], the EC50 is 35.8 nM. Moreover, in data set [2], the 50% cytotoxic concentration (CC50) at 4 days was over 10000 nM.
Regarding `O=C(Cn1nc(C(F)F)c2c1C(F)(F)[C@@H]1C[C@H]21)N[C@@H](Cc1cc(F)cc(F)c1)c1nc2ccccc2nc1-c1ccc(S(=O)(=O)N2CCOCC2)cc1` [Example 156, 2-((3bS,4aR)-3-(difluoromethyl)-5,5-difluoro-3b,4,4a,5-tetrahydro-1H-cyclopropa[3,4]cyclopenta[1,2-c]pyrazol-1-yl)-N—((S)-2-(3,5-difluorophenyl)-1-(3-(4-(morpholinosulfonyl)phenyl)quinoxalin-2-yl)ethyl)acetamide], the EC50 in data set [1] stood at 16.4 nM. This compound came in with a CC50 at 4 days in data set [2] of over 10000 nM.
As for `O=C(Cn1nc(C(F)F)c2c1C(F)(F)[C@@H]1C[C@H]21)N[C@@H](Cc1cc(F)cc(F)c1)c1nc2ccccc2nc1-c1ccc2c(c1)C(=O)NC2` [Example 157, 2-((3bS,4aR)-3-(difluoromethyl)-5,5-difluoro-3b,4,4a,5-tetrahydro-1H-cyclopropa[3,4]cyclopenta[1,2-c]pyrazol-1-yl)-N—((S)-2-(3,5-difluorophenyl)-1-(3-(3-oxoisoindolin-5-yl)quinoxalin-2-yl)ethyl)acetamide], in data set [1], the half-maximal effective concentration (EC50) was 10.4 nM. This compound also yielded a CC50 at 4 days in data set [2] of over 10000 nM.
In the case of `O=C(Cc1c[nH]c2ccc(O)cc12)N[C@@H](Cc1cc(F)cc(F)c1)c1nc2ccccc2nc1-c1ccc2c(c1)C(=O)NC2` [Example 158, (S)—N-(2-(3,5-difluorophenyl)-1-(3-(3-oxoisoindolin-5-yl)quinoxalin-2-yl)ethyl)-2-(5-hydroxy-1H-indol-3-yl)acetamide], the EC50 in data set [1] stood at 102 nM. Besides, the CC50 at 4 days in data set [2] was over 10000 nM.
On to `CC(C)c1ccc(-n2c([C@H](Cc3cc(F)cc(F)c3)NC(=O)Cc3c[nH]c4ccc(O)cc34)nc3cc(C#N)ccc3c2=O)cn1` [Example 162, (S)—N-(1-(7-cyano-3-(6-isopropylpyridin-3-yl)-4-oxo-3,4-dihydroquinazolin-2-yl)-2-(3,5-difluorophenyl)ethyl)-2-(5-hydroxy-1H-indol-3-yl)acetamide], for which the 50% effective concentration (EC50) in data set [1] worked out at 6.56 nM. The compound further gave a half-maximal cytotoxic concentration (CC50) at 4 days in data set [2] of over 10000 nM.
With `CC(C)c1ccc(-n2c([C@H](Cc3cc(F)cc(F)c3)NC(=O)Cn3nc(C(F)F)c4c3C(F)(F)[C@@H]3C[C@H]43)nc3cc(C#N)ccc3c2=O)cn1` [Example 163, N—((S)-1-(7-cyano-3-(6-isopropylpyridin-3-yl)-4-oxo-3,4-dihydroquinazolin-2-yl)-2-(3,5-difluorophenyl)ethyl)-2-((3bS,4aR)-3-(difluoromethyl)-5,5-difluoro-3b,4,4a,5-tetrahydro-1H-cyclopropa[3,4]cyclopenta[1,2-c]pyrazol-1-yl)acetamide], in data set [1], the EC50 was 11.9 nM. The compound further yielded a half-maximal cytotoxic concentration (CC50) at 4 days in data set [2] of 3980 nM.
For `O=C(Cc1c[nH]c2ccc(O)cc12)N[C@@H](Cc1cc(F)cc(F)c1)c1nc2ccccc2c(=O)n1-c1ccc(S(=O)(=O)N2CCOCC2)cc1` [Example 164, (S)—N-(2-(3,5-difluorophenyl)-1-(3-(4-(morpholinosulfonyl)phenyl)-4-oxo-3,4-dihydroquinazolin-2-yl)ethyl)-2-(5-hydroxy-1H-indol-3-yl)acetamideacetamide], the EC50 in data set [1] is 1.17 nM. Further, the half-maximal cytotoxic concentration (CC50) at 4 days in data set [2] was over 10000 nM.
